Reference: patent US10508104B2, “6-hydroxy-5-(phenyl/heteroarylsulfonyl)pyrimidin-4(1H)-one as APJ agonists” (Bristol-Myers Squibb Company, priority 2016, dated 2019)

Molecular target: human APJ receptor (Homo sapiens (Human), UniProt P35414)
Assay: Intracellular cAMP accumulation assay (APJ hcAMP, HTRF)
Type: cell-based
Details: HEK293 cells stably expressing human APJ receptor; inhibition of forskolin-mediated cAMP production; read-out: Human APJ cAMP EC50 Potency range
Method in brief: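 HEK293 cells stably expressing human APJ, 5,000 per well, incubated 30 min at rt with compound, […] and 2 μM forskolin. cAMP measured by HTRF against a cAMP standard curve as inhibition of forskolin-driven production. EC50 from variable-slope sigmoidal fit.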

Sequence of human APJ receptor (P35414 whole entry): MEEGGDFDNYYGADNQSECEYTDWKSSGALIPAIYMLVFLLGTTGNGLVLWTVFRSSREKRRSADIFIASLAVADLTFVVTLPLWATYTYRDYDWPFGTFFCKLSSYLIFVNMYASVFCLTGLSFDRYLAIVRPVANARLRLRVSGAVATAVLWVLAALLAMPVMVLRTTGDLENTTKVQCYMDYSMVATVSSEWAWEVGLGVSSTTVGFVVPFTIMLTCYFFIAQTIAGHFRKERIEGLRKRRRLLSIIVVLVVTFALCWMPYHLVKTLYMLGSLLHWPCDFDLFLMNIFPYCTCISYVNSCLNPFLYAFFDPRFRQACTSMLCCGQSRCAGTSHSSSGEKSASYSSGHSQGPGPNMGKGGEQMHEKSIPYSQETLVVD

Row | EC50 [nM] | SMILES
1 | 0.01 to 10 | C=C(c1cccc(C#N)c1)n1c(CCCC)nc(=O)c(S(=O)(=O)c2ccc(-c3ccncc3C)cc2)c1O [Example 360, 3-(1-(2-butyl-6-hydroxy-5-((4-(3-methylpyridin-4-yl)phenyl)sulfonyl)-4-oxopyrimidin-1 (4H)-yl)vinyl)benzonitrile]
2 | 0.01 to 10 | CCOCc1nc(=O)c(S(=O)(=O)c2ccc(C(C)(C)C)cc2)c(O)n1-c1c(CC)cccc1CC [Example 361, 5-(4-tert-butylbenzenesulfonyl)-1-(2,6-diethylphenyl)-2-(ethoxymethyl)-6-hydroxy-1,4-dihydropyrimidin-4-one]
3 | 0.01 to 10 | CCCCc1nc(=O)c(S(=O)(=O)c2ccc(C(C)(C)C)cc2)c(O)n1-c1c(CC)cccc1CC [Example 362, 2-butyl-5-(4-tert-butylbenzenesulfonyl)-1-(2,6-diethylphenyl)-6-hydroxy-1,4-dihydropyrimidin-4-one]
4 | 0.01 to 10 | CCCCc1nc(=O)c(S(=O)(=O)c2ccc(C(C)(C)C)cc2)c(O)n1-c1c(OC)cccc1OC [Example 363, 2-butyl-5-(4-tert-butylbenzenesulfonyl)-1-(2,6-dimethoxyphenyl)-6-hydroxy-1,4-dihydropyrimidin-4-one]
5 | 0.01 to 10 | CCCCc1nc(=O)c(S(=O)(=O)[C@H]2CC[C@H](OCc3ccccc3)CC2)c(O)n1-c1c(CC)cccc1CC [Example 364, 2-butyl-1-(2,6-diethylphenyl)-6-hydroxy-5-{[(1r,4r)-4-(benzyloxy)cyclohexyl]sulfonyl}-1,4-dihydropyrimidin-4-one]
6 | 0.01 to 10 | CCCCc1nc(=O)c(S(=O)(=O)[C@H]2CC[C@@H](OCc3ccccc3)CC2)c(O)n1-c1c(CC)cccc1CC [Example 365, 2-butyl-1-(2,6-diethylphenyl)-6-hydroxy-5-{[(1s,4s)-4-(benzyloxy)cyclohexyl]sulfonyl}-1,4-dihydropyrimidin-4-one]
7 | 0.01 to 10 | CCCCc1nc(=O)c(S(=O)(=O)[C@H]2CC[C@H](OCc3ccccc3)CC2)c(O)n1-c1c(OC)cccc1OC [Example 366, 2-butyl-1-(2,6-dimethoxyphenyl)-6-hydroxy-5-{[(1r,4r)-4-(benzyloxy)cyclohexyl]sulfonyl}-1,4-dihydropyrimidin-4-one]

Same assay, conditions: human APJ, cAMP accumulation; read-out: Human APJ cAMP EC50 Potency range

Row | EC50 [nM] | SMILES
8 | 0.01 to 10 | Cc1ncccc1-c1ccc(S(=O)(=O)c2c(O)n([C@H]3CCc4ccccc43)c(COC(C)C)nc2=O)cc1 [Example 330, 1-[(1S)-2,3-dihydro-1H-inden-1-yl]-6-hydroxy-5-[4-(2-methylpyridin-3-yl)benzenesulfonyl]-2-[(propan-2-yloxy)methyl]-1,4-dihydropyrimidin-4-one]
9 | 0.01 to 10 | Cc1c(-c2ccc(S(=O)(=O)c3c(O)n([C@H]4CCc5ccccc54)c(COC(C)C)nc3=O)cc2)ccnc1F [Example 331, 1-[(1S)-2,3-dihydro-1H-inden-1-yl]-5-[4-(2-fluoro-3-methylpyridin-4-yl)benzenesulfonyl]-6-hydroxy-2-[(propan-2-yloxy)methyl]-1,4-dihydropyrimidin-4-one]
10 | 0.01 to 10 | Cc1cnccc1-c1ccc(S(=O)(=O)c2c(O)n([C@H]3CCc4ccccc43)c(COC(C)C)nc2=O)cc1 [Example 332, 1-[(1S)-2,3-dihydro-1H-inden-1-yl]-6-hydroxy-5-[4-(3-methylpyridin-4-yl)benzenesulfonyl]-2-[(propan-2-yloxy)methyl]-1,4-dihydropyrimidin-4-one]
11 | 0.01 to 10 | COC[C@@H](c1ccccc1)n1c(COC(C)C)nc(=O)c(S(=O)(=O)c2ccc(-c3ccnc(F)c3C)c(F)c2)c1O [Example 333, 5-[3-fluoro-4-(2-fluoro-3-methylpyridin-4-yl)benzenesulfonyl]-6-hydroxy-1-[(1R)-2-methoxy-1-phenylethyl]-2-[(propan-2-yloxy)methyl]-1,4-dihydropyrimidin-4-one]
12 | 0.01 to 10 | CCOCc1nc(=O)c(S(=O)(=O)c2ccc(-c3cncc(F)c3)cc2)c(O)n1[C@@H](CC)c1ccccc1 [Example 334, 2-(ethoxymethyl)-5-[4-(5-fluoropyridin-3-yl)benzenesulfonyl]-6-hydroxy-1-[(1S)-1-phenylpropyl]-1,4-dihydropyrimidin-4-one]
13 | 0.01 to 10 | COC[C@@H](c1ccccc1)n1c(COC(C)C)nc(=O)c(S(=O)(=O)c2ccc(-c3ccc(F)nc3)c(F)c2)c1O [Example 335, 5-[3-fluoro-4-(6-fluoropyridin-3-yl)benzenesulfonyl]-6-hydroxy-1-[(1R)-2-methoxy-1-phenylethyl]-2-[(propan-2-yloxy)methyl]-1,4-dihydropyrimidin-4-one]
14 | 0.01 to 10 | COC[C@@H](c1ccccc1)n1c(COC(C)C)nc(=O)c(S(=O)(=O)c2ccc(-c3ccncc3C)c(F)c2)c1O [Example 336, 5-[3-fluoro-4-(3-methylpyridin-4-yl)benzenesulfonyl]-6-hydroxy-1-[(1R)-2-methoxy-1-phenylethyl]-2-[(propan-2-yloxy)methyl]-1,4-dihydropyrimidin-4-one]
15 | 0.01 to 10 | COC[C@@H](c1ccccc1)n1c(COC(C)C)nc(=O)c(S(=O)(=O)c2ccc(F)c(F)c2)c1O [Example 337, 5-(3,4-difluorobenzenesulfonyl)-6-hydroxy-1-[(1R)-2-methoxy-1-phenylethyl]-2-[(propan-2-yloxy)methyl]-1,4-dihydropyrimidin-4-one]
16 | 0.01 to 10 | CCOCc1nc(=O)c(S(=O)(=O)c2ccc(-c3ccnc(F)c3C)c(F)c2)c(O)n1[C@@H](COC)c1ccccc1 [Example 338, 2-(ethoxymethyl)-5-[3-fluoro-4-(2-fluoro-3-methylpyridin-4-yl)benzenesulfonyl]-6-hydroxy-1-[(1R)-2-methoxy-1-phenylethyl]-1,4-dihydropyrimidin-4-one]
17 | 0.01 to 10 | CCOCc1nc(=O)c(S(=O)(=O)c2ccc(-c3ccc(F)nc3C)c(F)c2)c(O)n1[C@@H](COC)c1ccccc1 [Example 339, 2-(ethoxymethyl)-5-[3-fluoro-4-(6-fluoro-2-methylpyridin-3-yl)benzenesulfonyl]-6-hydroxy-1-[(1R)-2-methoxy-1-phenylethyl]-1,4-dihydropyrimidin-4-one]
18 | 0.01 to 10 | CCOCc1nc(=O)c(S(=O)(=O)c2ccc(-c3ccncc3C)c(F)c2)c(O)n1[C@@H](COC)c1ccccc1 [Example 340, 2-(ethoxymethyl)-5-[3-fluoro-4-(3-methylpyridin-4-yl)benzenesulfonyl]-6-hydroxy-1-[(1R)-2-methoxy-1-phenylethyl]-1,4-dihydropyrimidin-4-one]
19 | 0.01 to 10 | CCOCc1nc(=O)c(S(=O)(=O)c2ccc(-c3ccc(F)nc3)c(F)c2)c(O)n1[C@@H](COC)c1ccccc1 [Example 341, 2-(ethoxymethyl)-5-[3-fluoro-4-(6-fluoropyridin-3-yl)benzenesulfonyl]-6-hydroxy-1-[(1R)-2-methoxy-1-phenylethyl]-1,4-dihydropyrimidin-4-one]
20 | 10 to 100 | CCOCc1nc(=O)c(S(=O)(=O)c2ccc(-c3ccnc(F)c3C)cc2)c(O)n1[C@H]1CCOc2ccccc21 [Example 342, 1-[(4S)-3,4-dihydro-2H-1-benzopyran-4-yl]-2-(ethoxymethyl)-5-[4-(2-fluoro-3-methylpyridin-4-yl)benzenesulfonyl]-6-hydroxy-1,4-dihydropyrimidin-4-one]
21 | 0.01 to 10 | CCOCc1nc(=O)c(S(=O)(=O)c2ccc(-c3ccnc(F)c3C)c(F)c2)c(O)n1[C@@H](COC)c1cccc(C#N)c1 [Example 343, 3-[(1R)-1-[2-(ethoxymethyl)-5-[3-fluoro-4-(2-fluoro-3-methylpyridin-4-yl)benzenesulfonyl]-6-hydroxy-4-oxo-1,4-dihydropyrimidin-1-yl]-2-methoxyethyl] benzonitrile]
22 | 0.01 to 10 | CCOCc1nc(=O)c(S(=O)(=O)c2ccc(-c3ccc(F)nc3C)c(F)c2)c(O)n1[C@@H](COC)c1cccc(C#N)c1 [Example 344, 3-[(1R)-1-[2-(ethoxymethyl)-5-[3-fluoro-4-(6-fluoro-2-methylpyridin-3-yl)benzenesulfonyl]-6-hydroxy-4-oxo-1,4-dihydropyrimidin-1-yl]-2-methoxyethyl] benzonitrile]
23 | 0.01 to 10 | CCOCc1nc(=O)c(S(=O)(=O)c2ccc(-c3ccncc3C)c(F)c2)c(O)n1[C@@H](COC)c1cccc(C#N)c1 [Example 345, 3-[(1R)-1-[2-(ethoxymethyl)-5-[3-fluoro-4-(3-methylpyridin-4-yl)benzenesulfonyl]-6-hydroxy-4-oxo-1,4-dihydropyrimidin-1-yl]-2-methoxyethyl] benzonitrile]
24 | 0.01 to 10 | CCOCc1nc(=O)c(S(=O)(=O)c2ccc(-c3ccnc(F)c3C)c(F)c2)c(O)n1C(COC)c1cccc(F)c1 (stereo not drawn) [Example 346, 2-(ethoxymethyl)-5-[3-fluoro-4-(2-fluoro-3-methylpyridin-4-yl)benzenesulfonyl]-1-[1-(3-fluorophenyl)-2-methoxyethyl]-6-hydroxy-1,4-dihydropyrimidin-4-one]
25 | 0.01 to 10 | CCOCc1nc(=O)c(S(=O)(=O)c2ccc(-c3ccc(F)nc3C)c(F)c2)c(O)n1C(COC)c1cccc(F)c1 (stereo not drawn) [Example 347, 2-(ethoxymethyl)-5-[3-fluoro-4-(6-fluoro-2-methylpyridin-3-yl)benzenesulfonyl]-1-[1-(3-fluorophenyl)-2-methoxyethyl]-6-hydroxy-1,4-dihydropyrimidin-4-one]
26 | 0.01 to 10 | CCCCc1nc(=O)c(S(=O)(=O)c2ccc(C3CC3)cc2)c(O)n1[C@@H](CC)c1cccc(C#N)c1 [Example 348, 3-[(1S)-1-[2-butyl-5-(4-cyclopropylbenzene-sulfonyl)-6-hydroxy-4-oxo-1,4-dihydropyrimidin-1-yl]propyl]benzonitrile]
27 | 100 to 300 | COC[C@@H](c1ccccc1)n1c(C2CCCO2)nc(=O)c(S(=O)(=O)c2ccc(Br)cc2)c1O (stereo partly drawn) [Example 349, 5-(4-bromobenzenesulfonyl)-6-hydroxy-1-[(1R)-2-methoxy-1-phenylethyl]-2-(oxolan-2-yl)-1,4-dihydropyrimidin-4-one]
